Test system: Stress protein genes
Test: DNA chip mRNA expression in yeast, stress protein genes (Table 6)
Format: cell-based, Saccharomyces cerevisiae S288C
Protocol: Yeast (Saccharomyces cerevisiae S288C (α SUC2mal mel gap2 CUP1)) were incubated at 25° C. on YPD medium (yeast extract 1%, polypepton 2%, glucose 2%). One of toxic chemical substances was added to the cells at logarithmic growth phase, and the cells were further incubated for two hours. Cells were cultured without any chemical substance in the same condition, and were used as control. Concentrations of the chemical substances were defined to inhibit the growth of the yeast but not lead to death.
After completion of the incubation, the culture was centrifuged to collect the cells. To the cells, sodium acetate buffer (50 mM sodium acetate, 10 mM EDTA, 1% SDS) was added, and the mixture was shaken at 65° C. for five minutes, followed by returning to room temperature, and obtaining the supernatant, of which the procedures were repeated two times. To the supernatant, ½ amount of a solution of phenol/chloroform was added, and the mixture was centrifuged to give a supernatant, which was added with an equal amount of chloroform, and the mixture was centrifuged to give a supernatant. To the supernatant, an equal amount of isopropanol containing 0.3 M sodium acetate was added, and the mixture was allowed to stand at room temperature for 30 minutes, after which the mixture was centrifuged to give a sediment of the whole RNAs. Seventy % ethanol was added to the sediment, and the mixture was again centrifuged to give a sediment, which was then dried and dissolved in water. mRNA was isolated from the whole RNAs as followings. In view of the fact that a poly A chain is attached to the 3′ terminus of mRNA, a polynucleotide having a poly T structure which was immobilized on the surface of latex beads was used to trap the mRNA, and then the mRNA was washed and eluted with spine column (Oligotex-dT30<Super>mRNA Purification Kit, Takara). Reverse transcription of the mRNA was conducted with a reverse transcriptase (Super Script II Reverse Transcriptase; catalogue No. 18064-014, GibcoBRL) using fluorescence-labeled nucleotides to give cDNAs that were introduced with Cy3-dUTP or Cy5-dUTP during the reverse transcription.
The labeled cDNAs were dissolved in TE buffer (10mM Tris-HCl/1 mM EDTA, pH8.0), and the solution was dropped on the DNA chip containing the whole genes of yeast (DNA Chip Research Inc. Japan) so that the cDNAs were hybridized on the DNA chip at 65° C. for over 12 hours. The fluoresces intensity of the DNA chip was read with a scanner, and the ratio relative to the fluorescence intensity resulting from the absence of chemical substance was estimated as the following, which is shown in Tables 1 to 9: […]

SMILES: S=C([S-])NCCNC(=S)[S-].[Zn+2] [(11), zinc N,N′-ethylenebis(dithiocarbamate)]
- The level of expressed mRNA in the presence of chemical substance/The level of expressed mRNA in the absence of chemical substance (yeast gene YIL033C): 1.8
- The level of expressed mRNA in the presence of chemical substance/The level of expressed mRNA in the absence of chemical substance (yeast gene YIR037W): 3.0
- The level of expressed mRNA in the presence of chemical substance/The level of expressed mRNA in the absence of chemical substance (yeast gene YIR038C): 3.4
- The level of expressed mRNA in the presence of chemical substance/The level of expressed mRNA in the absence of chemical substance (yeast gene YJL128C): 0.6
- The level of expressed mRNA in the presence of chemical substance/The level of expressed mRNA in the absence of chemical substance (yeast gene YJL158C): 1.9
- The level of expressed mRNA in the presence of chemical substance/The level of expressed mRNA in the absence of chemical substance (yeast gene YJL159W): 1.2
- The level of expressed mRNA in the presence of chemical substance/The level of expressed mRNA in the absence of chemical substance (yeast gene YJL165C): 1.7
- The level of expressed mRNA in the presence of chemical substance/The level of expressed mRNA in the absence of chemical substance (yeast gene YJR045C): 1.4
- The level of expressed mRNA in the presence of chemical substance/The level of expressed mRNA in the absence of chemical substance (yeast gene YJR090C): 0.4
- The level of expressed mRNA in the presence of chemical substance/The level of expressed mRNA in the absence of chemical substance (yeast gene YKL161C): 3.1
- The level of expressed mRNA in the presence of chemical substance/The level of expressed mRNA in the absence of chemical substance (yeast gene YKL163W): 1.3
- The level of expressed mRNA in the presence of chemical substance/The level of expressed mRNA in the absence of chemical substance (yeast gene YKL164C): 1.0
- The level of expressed mRNA in the presence of chemical substance/The level of expressed mRNA in the absence of chemical substance (yeast gene YKL210W): 1.4
- The level of expressed mRNA in the presence of chemical substance/The level of expressed mRNA in the absence of chemical substance (yeast gene YKR053C): 0.5
- The level of expressed mRNA in the presence of chemical substance/The level of expressed mRNA in the absence of chemical substance (yeast gene YLL024C): 1.6
- The level of expressed mRNA in the presence of chemical substance/The level of expressed mRNA in the absence of chemical substance (yeast gene YLL026W): 1.7
- The level of expressed mRNA in the presence of chemical substance/The level of expressed mRNA in the absence of chemical substance (yeast gene YLL039C): 1.1
- The level of expressed mRNA in the presence of chemical substance/The level of expressed mRNA in the absence of chemical substance (yeast gene YLL060C): 14.1
- The level of expressed mRNA in the presence of chemical substance/The level of expressed mRNA in the absence of chemical substance (yeast gene YLR006C): 1.5
- The level of expressed mRNA in the presence of chemical substance/The level of expressed mRNA in the absence of chemical substance (yeast gene YLR109W): 1.5
- The level of expressed mRNA in the presence of chemical substance/The level of expressed mRNA in the absence of chemical substance (yeast gene YLR259C): 3.0
- The level of expressed mRNA in the presence of chemical substance/The level of expressed mRNA in the absence of chemical substance (yeast gene YML007W): 1.3
- The level of expressed mRNA in the presence of chemical substance/The level of expressed mRNA in the absence of chemical substance (yeast gene YML070W): 1.5
- The level of expressed mRNA in the presence of chemical substance/The level of expressed mRNA in the absence of chemical substance (yeast gene YMR021C): 0.9
- The level of expressed mRNA in the presence of chemical substance/The level of expressed mRNA in the absence of chemical substance (yeast gene YMR173W): 3.2
- The level of expressed mRNA in the presence of chemical substance/The level of expressed mRNA in the absence of chemical substance (yeast gene YMR186W): 1.1
- The level of expressed mRNA in the presence of chemical substance/The level of expressed mRNA in the absence of chemical substance (yeast gene YNL064C): 0.9
- The level of expressed mRNA in the presence of chemical substance/The level of expressed mRNA in the absence of chemical substance (yeast gene YNL160W): 5.4
- The level of expressed mRNA in the presence of chemical substance/The level of expressed mRNA in the absence of chemical substance (yeast gene YNL241C): 3.0
- The level of expressed mRNA in the presence of chemical substance/The level of expressed mRNA in the absence of chemical substance (yeast gene YNR076W): 1.4
- The level of expressed mRNA in the presence of chemical substance/The level of expressed mRNA in the absence of chemical substance (yeast gene YOL064C): 1.0
- The level of expressed mRNA in the presence of chemical substance/The level of expressed mRNA in the absence of chemical substance (yeast gene YOL161C): 1.5
- The level of expressed mRNA in the presence of chemical substance/The level of expressed mRNA in the absence of chemical substance (yeast gene YOR008C): 1.0
- The level of expressed mRNA in the presence of chemical substance/The level of expressed mRNA in the absence of chemical substance (yeast gene YOR009W): 1.4
- The level of expressed mRNA in the presence of chemical substance/The level of expressed mRNA in the absence of chemical substance (yeast gene YOR010C): 1.2
- The level of expressed mRNA in the presence of chemical substance/The level of expressed mRNA in the absence of chemical substance (yeast gene YOR027W): 1.3
- The level of expressed mRNA in the presence of chemical substance/The level of expressed mRNA in the absence of chemical substance (yeast gene YOR208W): 1.2
- The level of expressed mRNA in the presence of chemical substance/The level of expressed mRNA in the absence of chemical substance (yeast gene YPL059W): 1.6
- The level of expressed mRNA in the presence of chemical substance/The level of expressed mRNA in the absence of chemical substance (yeast gene YPL106C): 1.3
- The level of expressed mRNA in the presence of chemical substance/The level of expressed mRNA in the absence of chemical substance (yeast gene YPL140C): 0.8
- The level of expressed mRNA in the presence of chemical substance/The level of expressed mRNA in the absence of chemical substance (yeast gene YPL194W): 0.9
- The level of expressed mRNA in the presence of chemical substance/The level of expressed mRNA in the absence of chemical substance (yeast gene YPL223C): 1.8
- The level of expressed mRNA in the presence of chemical substance/The level of expressed mRNA in the absence of chemical substance (yeast gene YPL240C): 1.0
- The level of expressed mRNA in the presence of chemical substance/The level of expressed mRNA in the absence of chemical substance (yeast gene YPR005C): 0.4
- The level of expressed mRNA in the presence of chemical substance/The level of expressed mRNA in the absence of chemical substance (yeast gene YPR026W): 1.6

Reference: patent publication US8192962B2, “Processes for detecting toxic substances” (Daikin Industries, Ltd., priority 2001, dated 2012)
